From PubChem BioAssay AID330 (DTP/NCI, 2004)
Inconclusive results and toxic doses are left out.

System: P388 leukemia ip, CD2F1 mice, survival T/C
Experiment: NCI In Vivo Anticancer Drug Screen. Data for tumor model P388 Leukemia (intraperitoneal) in CD2F1 (CDF1) mice
Conditions: endpoint: median survival time, higher = longer survival
Method in brief: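 Mice carrying the transplanted tumor received test compound or vehicle. Survival was recorded in each group, and the value is the treated-group measurement divided by that of the vehicle-treated control group.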

[1] = dose: 25.0 mg/kg/injection, schedule: Q01DX009 (ip), vehicle: saline with Tween-80
[2] = dose: 50.0 mg/kg/injection, schedule: Q01DX009 (ip), vehicle: saline with Tween-80
[3] = dose: 100.0 mg/kg/injection, schedule: Q01DX001 (ip), vehicle: saline
[4] = dose: 200.0 mg/kg/injection, schedule: Q01DX001 (ip), vehicle: saline
[5] = dose: 400.0 mg/kg/injection, schedule: Q01DX001 (ip), vehicle: saline
[6] = dose: 100.0 mg/kg/injection, schedule: Q01DX009 (ip), vehicle: saline with Tween-80
[7] = dose: 200.0 mg/kg/injection, schedule: Q01DX009 (ip), vehicle: saline with Tween-80
[8] = dose: 25.0 mg/kg/injection, schedule: Q01DX009 (ip), vehicle: saline
[9] = dose: 50.0 mg/kg/injection, schedule: Q01DX009 (ip), vehicle: saline
[10] = dose: 100.0 mg/kg/injection, schedule: Q01DX009 (ip), vehicle: saline
[11] = dose: 50.0 mg/kg/injection, schedule: Q01DX005 (ip), vehicle: Klucel (hydroxypropylcellulose) (HPC)
[12] = dose: 100.0 mg/kg/injection, schedule: Q01DX005 (ip), vehicle: Klucel (hydroxypropylcellulose) (HPC)
[13] = dose: 200.0 mg/kg/injection, schedule: Q01DX005 (ip), vehicle: Klucel (hydroxypropylcellulose) (HPC)
[14] = dose: 50.0 mg/kg/injection, schedule: Q01DX009 (ip), vehicle: suspension in saline
[15] = dose: 100.0 mg/kg/injection, schedule: Q01DX009 (ip), vehicle: suspension in saline
[16] = dose: 200.0 mg/kg/injection, schedule: Q01DX009 (ip), vehicle: suspension in saline
[17] = dose: 100.0 mg/kg/injection, schedule: Q04DX003 (ip), vehicle: Klucel (hydroxypropylcellulose) (HPC)
[18] = dose: 50.0 mg/kg/injection, schedule: Q01DX005 (ip), vehicle: saline with Tween-80
[19] = dose: 100.0 mg/kg/injection, schedule: Q01DX005 (ip), vehicle: saline with Tween-80
[20] = dose: 200.0 mg/kg/injection, schedule: Q01DX005 (ip), vehicle: saline with Tween-80
[21] = dose: 60.0 mg/kg/injection, schedule: Q01DX005 (ip), vehicle: saline
[22] = dose: 120.0 mg/kg/injection, schedule: Q01DX005 (ip), vehicle: saline

C[Si](C)(C)ONC(=O)c1ccccc1
T/C (dose: 6.25 mg/kg/injection, schedule: Q01DX009 (ip), vehicle: distilled water + Tween-80): 100 % of control
T/C (dose: 12.5 mg/kg/injection, schedule: Q01DX009 (ip), vehicle: distilled water + Tween-80): 92 % of control
T/C (dose: 25.0 mg/kg/injection, schedule: Q01DX009 (ip), vehicle: distilled water + Tween-80): 109 % of control
T/C (dose: 50.0 mg/kg/injection, schedule: Q01DX009 (ip), vehicle: distilled water + Tween-80): 102 % of control
T/C (dose: 100.0 mg/kg/injection, schedule: Q01DX009 (ip), vehicle: distilled water + Tween-80): 99 % of control
T/C (dose: 200.0 mg/kg/injection, schedule: Q01DX009 (ip), vehicle: distilled water + Tween-80): 105 % of control

CC(=O)OC1CC2CC1C1C3C=CC(C3)C21 (configuration not stated)
T/C [1]: 100 % of control
T/C [2]: 104 % of control
T/C [3]: 100 % of control
T/C [4]: 91 % of control
T/C [5]: 95 % of control

COc1cc(OC)c(/C=C\c2nccc3ccccc23)c(OC)c1
T/C [2]: 95 % of control
T/C [6]: 96 % of control
T/C [7]: 96 % of control

Cc1ccc(NC(=S)NC(=O)/C=C/c2ccccc2)cc1Cl
T/C [8]: 100 % of control
T/C [9]: 105 % of control
T/C [10]: 98 % of control
T/C (dose: 200.0 mg/kg/injection, schedule: Q01DX009 (ip), vehicle: saline): 97 % of control

CC(C)N(C(C)C)C1C2=C(CCSC2)OC(=O)C1(Cl)Cl (configuration not stated)
T/C [2]: 103 % of control
T/C [6]: 100 % of control
T/C [7]: 96 % of control

CC(=O)n1oc2ccc(Br)cc2c1=O
T/C [11]: 100 % of control
T/C [12]: 95 % of control
T/C [13]: 100 % of control

COc1ccc(CSC(=S)Nc2ccc(Cl)c(C(F)(F)F)c2)cc1
T/C [1]: 95 % of control
T/C [8]: 104 % of control
T/C [2]: 98 % of control
T/C [9]: 109 % of control
T/C [14]: 106 % of control
T/C [6]: 100 % of control
T/C [10]: 104 % of control
T/C [15]: 124 % of control
T/C [7]: 91 % of control
T/C [16]: 124 % of control

CN1CC(C(=O)NC2(C)OC3(O)C4CCCN4C(=O)C(Cc4ccccc4)N3C2=O)C=C2c3cccc4[nH]cc(c34)CC21 (configuration not stated)
T/C [11]: 91 % of control
T/C [12]: 87 % of control
T/C [13]: 102 % of control

COc1ccc2c(c1)C(=O)C[C@@H]1[C@](C)(C#N)CCC[C@]21C
T/C (dose: 60.0 mg/kg/injection, schedule: Q01DX005 (ip), vehicle: saline with Tween-80): 100 % of control
T/C (dose: 120.0 mg/kg/injection, schedule: Q01DX005 (ip), vehicle: saline with Tween-80): 94 % of control
T/C (dose: 240.0 mg/kg/injection, schedule: Q01DX005 (ip), vehicle: saline with Tween-80): 94 % of control

C=CC(=C)CCC=C(C)C
T/C [6]: 104 % of control
T/C (dose: 100.0 mg/kg/injection, schedule: Q04DX003 (ip), vehicle: saline with Tween-80): 110 % of control
T/C [7]: 113 % of control
T/C (dose: 200.0 mg/kg/injection, schedule: Q04DX003 (ip), vehicle: saline with Tween-80): 110 % of control
T/C (dose: 400.0 mg/kg/injection, schedule: Q04DX003 (ip), vehicle: saline with Tween-80): 110 % of control

Cc1ccc(S(C)(=N)=O)c(N)c1 (configuration not stated)
T/C (dose: 50.0 mg/kg/injection, schedule: Q01DX005 (ip), vehicle: acetone): 99 % of control
T/C (dose: 100.0 mg/kg/injection, schedule: Q01DX005 (ip), vehicle: acetone): 99 % of control
T/C (dose: 200.0 mg/kg/injection, schedule: Q01DX005 (ip), vehicle: acetone): 100 % of control

CCOC(=O)CCC(C(=O)c1cccnc1)c1ccccn1 (configuration not stated)
T/C [3]: 104 % of control
T/C [4]: 101 % of control
T/C [5]: 99 % of control

N#Cc1cnc2n(c1=N)CCCCC2
T/C (dose: 25.0 mg/kg/injection, schedule: Q04DX003 (ip), vehicle: Klucel (hydroxypropylcellulose) (HPC)): 102 % of control
T/C (dose: 50.0 mg/kg/injection, schedule: Q04DX003 (ip), vehicle: Klucel (hydroxypropylcellulose) (HPC)): 94 % of control
T/C [17]: 102 % of control

C=C1CC2(OC1=O)C(C1COC(C)(C)O1)OC1OC(C)(C)OC12 (configuration not stated)
T/C (dose: 25.0 mg/kg/injection, schedule: Q04DX002 (ip), vehicle: saline): 96 % of control
T/C [18]: 105 % of control
T/C (dose: 50.0 mg/kg/injection, schedule: Q04DX002 (ip), vehicle: saline): 99 % of control
T/C [19]: 110 % of control
T/C (dose: 100.0 mg/kg/injection, schedule: Q04DX002 (ip), vehicle: saline): 104 % of control
T/C [20]: 105 % of control

CCC(C)/C(=C\C#N)NCCN/C(=C/C#N)C(C)CC (configuration not stated)
T/C (dose: 60.0 mg/kg/injection, schedule: Q01DX005 (ip), vehicle: Klucel (hydroxypropylcellulose) (HPC)): 94 % of control
T/C (dose: 120.0 mg/kg/injection, schedule: Q01DX005 (ip), vehicle: Klucel (hydroxypropylcellulose) (HPC)): 91 % of control
T/C (dose: 240.0 mg/kg/injection, schedule: Q01DX005 (ip), vehicle: Klucel (hydroxypropylcellulose) (HPC)): 89 % of control

CN(C)/C=C/C=C1\CCCC1=O
T/C (dose: 50.0 mg/kg/injection, schedule: Q04DX002 (ip), vehicle: saline with Tween-80): 103 % of control
T/C (dose: 100.0 mg/kg/injection, schedule: Q04DX002 (ip), vehicle: saline with Tween-80): 100 % of control
T/C (dose: 200.0 mg/kg/injection, schedule: Q04DX002 (ip), vehicle: saline with Tween-80): 108 % of control

CCN(CC)C(=O)/C(C)=C1/c2ccccc2S(=O)(=O)N1C
T/C [17]: 109 % of control
T/C (dose: 200.0 mg/kg/injection, schedule: Q04DX003 (ip), vehicle: Klucel (hydroxypropylcellulose) (HPC)): 94 % of control
T/C (dose: 400.0 mg/kg/injection, schedule: Q04DX003 (ip), vehicle: Klucel (hydroxypropylcellulose) (HPC)): 98 % of control

CN(C[CH2][Sn]([CH3])([CH3])[Cl])C[CH2][Sn]([CH3])([CH3])[Cl]
T/C (dose: 3.75 mg/kg/injection, schedule: Q01DX005 (ip), vehicle: saline): 102 % of control
T/C (dose: 7.5 mg/kg/injection, schedule: Q01DX005 (ip), vehicle: saline): 121 % of control

CN(N=O)C(=O)NCCSSCCNC(=O)N(C)N=O
T/C (dose: 20.0 mg/kg/injection, schedule: Q04DX003 (ip), vehicle: saline with Tween-80): 115 % of control
T/C (dose: 40.0 mg/kg/injection, schedule: Q01DX009 (ip), vehicle: saline with Tween-80): 177 % of control
T/C (dose: 80.0 mg/kg/injection, schedule: Q04DX003 (ip), vehicle: saline with Tween-80): 155 % of control

CNC(=O)CCCCCNC(C)=O
T/C [11]: 98 % of control
T/C [12]: 95 % of control
T/C [13]: 90 % of control
T/C (dose: 400.0 mg/kg/injection, schedule: Q01DX005 (ip), vehicle: Klucel (hydroxypropylcellulose) (HPC)): 97 % of control

CSc1ccc(N2C(=O)CCSC2=S)cc1Cl
T/C [14]: 108 % of control
T/C [15]: 110 % of control
T/C [16]: 114 % of control

CCOC(=O)CNC(=O)NN(c1ccccc1)C1CCS(=O)(=O)C1 (configuration not stated)
T/C [18]: 100 % of control
T/C [19]: 90 % of control
T/C [20]: 94 % of control

O=S1(=O)CC(Sc2ccccc2)C1
T/C (dose: 100.0 mg/kg/injection, schedule: Q01DX001 (ip), vehicle: saline with Tween-80): 102 % of control
T/C (dose: 200.0 mg/kg/injection, schedule: Q01DX001 (ip), vehicle: saline with Tween-80): 96 % of control
T/C (dose: 400.0 mg/kg/injection, schedule: Q01DX001 (ip), vehicle: saline with Tween-80): 109 % of control

CC1CC2=C(C(=O)c3ccccc3C2=O)C(C)O1 (configuration not stated)
T/C [21]: 106 % of control
T/C [22]: 92 % of control
T/C (dose: 240.0 mg/kg/injection, schedule: Q01DX005 (ip), vehicle: saline): 96 % of control

O=C(Nc1cc(S(=O)(=O)O)cc2cc(S(=O)(=O)O)c(N=Nc3cc(Nc4nc(Cl)nc(Nc5ccc(S(=O)(=O)O)cc5)n4)ccc3S(=O)(=O)O)c(O)c12)c1ccccc1
T/C [21]: 106 % of control
T/C [22]: 102 % of control
